# PubChem BioAssay AID2060501 (Molecular Pharmacology Branch, DTP, NCI, 2025)
# Tested on: 282377-053-R-J1-PDC complex spheroids, viability
# Experiment: Anticancer human tumor 282377-053-R-J1-PDC patient-derived colon adenocarcinoma cell line growth inhibition [GQUAD]
# Details: for IC50: curve of first compound; for viability, T/C: stronger effect = lower value
# Outline: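 Multi-cell-type spheroids of tumor cells with HUVEC and mesenchymal stem cells, treated with drug combinations. Concentrations descend in half-log steps from near clinical Cmax, or from 10 microM where Cmax is unknown; viability read-out.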
# 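Note: spheroids exposed to compounds for 7 days before readout.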
# 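Throughout, for viability, T/C: percent of vehicle DMSO control viability with 100% = untreated-like growth.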
smiles,measurement,setting,value
C=CCn1c(=O)c2cnc(Nc3ccc(N4CCN(C)CC4)cc3)nc2n1-c1cccc(C(C)(C)O)n1 + CN(C)c1ccc(Nc2c3ccc(NC(=O)CCN4CCCC4)cc3nc3cc(NC(=O)CCN4CCCC4)ccc23)cc1,IC50,second compound 0.0316 µM,1.91 µM
same,IC50,second compound 0.1 µM,1.98 µM
same,IC50,second compound 0.316 µM,2.04 µM
same,IC50,second compound 1 µM,1.86 µM
same,IC50,second compound 3.16 µM,1.8 µM
same,IC50,second compound 10 µM,2.32 µM
same,"viability, T/C","second compound 0.0316 µM, first compound 0.0316 µM",94.2%
same,"viability, T/C","second compound 0.0316 µM, first compound 0.1 µM",99.9%
same,"viability, T/C","second compound 0.0316 µM, first compound 0.316 µM",83.3%
same,"viability, T/C","second compound 0.0316 µM, first compound 1 µM",75.2%
same,"viability, T/C","second compound 0.0316 µM, first compound 3.16 µM",30.8%
same,"viability, T/C","second compound 0.0316 µM, first compound 10 µM",16.7%
same,"viability, T/C","second compound 0.1 µM, first compound 0.0316 µM",108%
same,"viability, T/C","second compound 0.1 µM, first compound 0.1 µM",95.3%
same,"viability, T/C","second compound 0.1 µM, first compound 0.316 µM",82.7%
same,"viability, T/C","second compound 0.1 µM, first compound 1 µM",73.3%
same,"viability, T/C","second compound 0.1 µM, first compound 3.16 µM",33.9%
same,"viability, T/C","second compound 0.1 µM, first compound 10 µM",15.1%
same,"viability, T/C","second compound 0.316 µM, first compound 0.0316 µM",105%
same,"viability, T/C","second compound 0.316 µM, first compound 0.1 µM",84.8%
same,"viability, T/C","second compound 0.316 µM, first compound 0.316 µM",74.5%
same,"viability, T/C","second compound 0.316 µM, first compound 1 µM",90.1%
same,"viability, T/C","second compound 0.316 µM, first compound 3.16 µM",26.5%
same,"viability, T/C","second compound 0.316 µM, first compound 10 µM",16.1%
same,"viability, T/C","second compound 1 µM, first compound 0.0316 µM",85.2%
same,"viability, T/C","second compound 1 µM, first compound 0.1 µM",90.9%
same,"viability, T/C","second compound 1 µM, first compound 0.316 µM",94.2%
same,"viability, T/C","second compound 1 µM, first compound 1 µM",76.4%
same,"viability, T/C","second compound 1 µM, first compound 3.16 µM",27.5%
same,"viability, T/C","second compound 1 µM, first compound 10 µM",16.7%
same,"viability, T/C","second compound 3.16 µM, first compound 0.0316 µM",92.8%
same,"viability, T/C","second compound 3.16 µM, first compound 0.1 µM",82.5%
same,"viability, T/C","second compound 3.16 µM, first compound 0.316 µM",92.8%
same,"viability, T/C","second compound 3.16 µM, first compound 1 µM",68.5%
same,"viability, T/C","second compound 3.16 µM, first compound 3.16 µM",31.8%
same,"viability, T/C","second compound 3.16 µM, first compound 10 µM",16.1%
same,"viability, T/C","second compound 10 µM, first compound 0.0316 µM",86.7%
same,"viability, T/C","second compound 10 µM, first compound 0.1 µM",78.3%
same,"viability, T/C","second compound 10 µM, first compound 0.316 µM",104%
same,"viability, T/C","second compound 10 µM, first compound 1 µM",78.4%
same,"viability, T/C","second compound 10 µM, first compound 3.16 µM",39.1%
same,"viability, T/C","second compound 10 µM, first compound 10 µM",15.3%
